Measured values: patent US6608086B2, “Dihydropyridines and new uses thereof” (Synaptic Pharmaceutical Corporation, priority 1993, dated 2003)
Where two headings read alike, the source gives them in different places.

Key:
L-type calcium channel = target: T1, L-type calcium channel (Rattus norvegicus, UniProt P22002); experiment: Competition binding of [3H]nitrendipine to membrane fragments of rat cardiac muscle
T1 construct: membrane fragments of rat cardiac muscle; from tissue; host or cells: rat cardiac muscle membranes
T1 sequence (P22002 whole entry, other chains not shown, the tested form may be a part): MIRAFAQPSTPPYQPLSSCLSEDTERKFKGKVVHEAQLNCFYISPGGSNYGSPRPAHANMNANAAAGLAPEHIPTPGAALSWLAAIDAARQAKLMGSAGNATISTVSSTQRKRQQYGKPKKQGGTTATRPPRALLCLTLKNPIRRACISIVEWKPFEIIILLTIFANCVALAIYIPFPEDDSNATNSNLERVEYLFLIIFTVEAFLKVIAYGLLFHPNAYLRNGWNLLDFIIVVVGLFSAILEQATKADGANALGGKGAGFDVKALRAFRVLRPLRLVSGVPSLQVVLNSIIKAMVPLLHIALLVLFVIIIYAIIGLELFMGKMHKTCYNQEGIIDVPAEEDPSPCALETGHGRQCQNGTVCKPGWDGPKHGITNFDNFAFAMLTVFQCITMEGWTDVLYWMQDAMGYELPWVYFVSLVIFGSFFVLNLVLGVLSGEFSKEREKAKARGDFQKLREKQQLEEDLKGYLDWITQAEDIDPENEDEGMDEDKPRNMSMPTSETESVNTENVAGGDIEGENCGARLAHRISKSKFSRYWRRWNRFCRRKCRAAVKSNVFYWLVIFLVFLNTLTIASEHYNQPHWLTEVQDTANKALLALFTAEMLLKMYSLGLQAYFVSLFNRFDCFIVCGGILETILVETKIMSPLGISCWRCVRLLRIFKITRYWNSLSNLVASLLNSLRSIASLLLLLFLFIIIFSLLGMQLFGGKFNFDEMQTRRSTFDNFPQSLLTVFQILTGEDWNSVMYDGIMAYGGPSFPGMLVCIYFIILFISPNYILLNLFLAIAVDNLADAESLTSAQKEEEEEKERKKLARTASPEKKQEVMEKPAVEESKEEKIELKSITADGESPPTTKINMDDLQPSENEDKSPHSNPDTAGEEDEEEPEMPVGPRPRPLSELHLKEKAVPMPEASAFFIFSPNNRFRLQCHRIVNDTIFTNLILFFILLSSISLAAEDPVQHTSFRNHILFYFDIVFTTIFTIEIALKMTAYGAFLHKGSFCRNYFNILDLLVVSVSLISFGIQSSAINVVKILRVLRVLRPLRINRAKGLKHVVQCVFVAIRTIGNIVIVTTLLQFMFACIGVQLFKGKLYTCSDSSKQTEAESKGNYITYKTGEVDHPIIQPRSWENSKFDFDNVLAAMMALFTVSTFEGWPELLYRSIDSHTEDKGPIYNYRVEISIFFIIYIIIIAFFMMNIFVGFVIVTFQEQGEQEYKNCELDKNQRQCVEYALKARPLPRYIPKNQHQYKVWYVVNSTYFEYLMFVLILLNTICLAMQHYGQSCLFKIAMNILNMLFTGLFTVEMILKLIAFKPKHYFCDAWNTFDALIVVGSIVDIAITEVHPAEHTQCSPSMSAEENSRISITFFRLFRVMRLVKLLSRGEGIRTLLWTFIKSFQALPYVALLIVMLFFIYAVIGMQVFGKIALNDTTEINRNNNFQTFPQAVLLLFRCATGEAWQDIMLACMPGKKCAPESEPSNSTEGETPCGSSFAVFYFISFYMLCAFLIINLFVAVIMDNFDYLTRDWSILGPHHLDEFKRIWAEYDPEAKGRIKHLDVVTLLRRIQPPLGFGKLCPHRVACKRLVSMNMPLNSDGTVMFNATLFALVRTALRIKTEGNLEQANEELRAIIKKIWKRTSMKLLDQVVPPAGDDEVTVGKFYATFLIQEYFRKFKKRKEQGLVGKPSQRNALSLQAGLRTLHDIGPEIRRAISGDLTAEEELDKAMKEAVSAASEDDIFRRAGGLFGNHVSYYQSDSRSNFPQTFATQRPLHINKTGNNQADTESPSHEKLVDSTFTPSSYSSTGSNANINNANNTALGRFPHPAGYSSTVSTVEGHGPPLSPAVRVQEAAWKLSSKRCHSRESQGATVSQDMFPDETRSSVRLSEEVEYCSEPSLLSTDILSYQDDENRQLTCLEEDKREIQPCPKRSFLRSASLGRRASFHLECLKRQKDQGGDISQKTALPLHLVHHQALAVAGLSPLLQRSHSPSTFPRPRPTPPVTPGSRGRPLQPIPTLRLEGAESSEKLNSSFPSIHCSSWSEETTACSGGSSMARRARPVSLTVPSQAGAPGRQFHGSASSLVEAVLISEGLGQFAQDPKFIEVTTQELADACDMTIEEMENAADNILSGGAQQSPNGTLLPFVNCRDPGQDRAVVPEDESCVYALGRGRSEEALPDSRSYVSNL
T1 sequence (P54290 25-944 partner limits assumed, other chains not shown): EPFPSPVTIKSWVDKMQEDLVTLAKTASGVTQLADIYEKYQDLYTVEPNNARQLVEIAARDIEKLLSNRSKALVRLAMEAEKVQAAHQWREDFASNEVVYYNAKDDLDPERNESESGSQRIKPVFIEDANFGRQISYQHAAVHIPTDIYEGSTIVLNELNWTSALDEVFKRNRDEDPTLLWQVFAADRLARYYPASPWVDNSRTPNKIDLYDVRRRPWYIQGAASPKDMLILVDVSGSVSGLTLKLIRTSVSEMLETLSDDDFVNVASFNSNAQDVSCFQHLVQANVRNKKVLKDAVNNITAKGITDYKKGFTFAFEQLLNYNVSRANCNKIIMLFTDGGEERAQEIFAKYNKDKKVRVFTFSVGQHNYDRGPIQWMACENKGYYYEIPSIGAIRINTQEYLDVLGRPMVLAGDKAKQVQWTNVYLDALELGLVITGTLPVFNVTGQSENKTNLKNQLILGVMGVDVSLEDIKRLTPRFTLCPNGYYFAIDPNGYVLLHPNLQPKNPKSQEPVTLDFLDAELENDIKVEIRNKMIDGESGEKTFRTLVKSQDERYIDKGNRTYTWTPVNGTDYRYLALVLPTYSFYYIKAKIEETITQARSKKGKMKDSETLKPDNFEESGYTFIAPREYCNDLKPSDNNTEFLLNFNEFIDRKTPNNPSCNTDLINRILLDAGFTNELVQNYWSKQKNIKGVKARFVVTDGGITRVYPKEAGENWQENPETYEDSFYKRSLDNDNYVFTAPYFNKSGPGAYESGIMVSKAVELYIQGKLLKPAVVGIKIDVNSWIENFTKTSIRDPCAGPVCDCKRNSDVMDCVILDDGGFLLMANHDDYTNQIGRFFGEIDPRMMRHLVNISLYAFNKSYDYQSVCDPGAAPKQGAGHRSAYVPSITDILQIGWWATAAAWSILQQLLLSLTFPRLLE
T1 sequence (P54290 945-1091 partner limits assumed, other chains not shown): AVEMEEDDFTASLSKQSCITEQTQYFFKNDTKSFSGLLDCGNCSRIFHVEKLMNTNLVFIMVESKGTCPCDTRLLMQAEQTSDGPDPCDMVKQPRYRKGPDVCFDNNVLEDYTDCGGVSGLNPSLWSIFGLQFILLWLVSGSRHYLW
Description: The protocols for these experiments are given below.
Determination of the Activity of al Antagonists at Calcium Channels
Briefly, the tissue was minced and homogenized in 50 mM Tris-HCl (pH 7.4) containing 0.1 mM phenylmethylsulfonyl fluoride. The homogenates were centrifuged at 1000 g for 15 minutes, the resulting supernatant was centrifuged at 45,000 g for 15 minutes. The 45,000 g pellet was suspended in buffer and centrifuged a second time. Aliquots of membrane protein were incubated for 30 minutes at 37° C. in the presence of [3H]nitrendipine (1 nM), and nonspecific binding was determined in the presence of 10 μM nifedipine. The bound radioligand was separated by filtration through GF/B filters using a cell harvester.

[1] = target: T2, α1A Human Adrenergic Receptor (Homo sapiens, UniProt P25100); experiment: Radioligand binding, [3H]prazosin, cloned human α1A adrenergic receptor
T2 construct: The entire coding region of α1A (1719 bp); expressed in transfected cells
T2 sequence (P25100 1-572): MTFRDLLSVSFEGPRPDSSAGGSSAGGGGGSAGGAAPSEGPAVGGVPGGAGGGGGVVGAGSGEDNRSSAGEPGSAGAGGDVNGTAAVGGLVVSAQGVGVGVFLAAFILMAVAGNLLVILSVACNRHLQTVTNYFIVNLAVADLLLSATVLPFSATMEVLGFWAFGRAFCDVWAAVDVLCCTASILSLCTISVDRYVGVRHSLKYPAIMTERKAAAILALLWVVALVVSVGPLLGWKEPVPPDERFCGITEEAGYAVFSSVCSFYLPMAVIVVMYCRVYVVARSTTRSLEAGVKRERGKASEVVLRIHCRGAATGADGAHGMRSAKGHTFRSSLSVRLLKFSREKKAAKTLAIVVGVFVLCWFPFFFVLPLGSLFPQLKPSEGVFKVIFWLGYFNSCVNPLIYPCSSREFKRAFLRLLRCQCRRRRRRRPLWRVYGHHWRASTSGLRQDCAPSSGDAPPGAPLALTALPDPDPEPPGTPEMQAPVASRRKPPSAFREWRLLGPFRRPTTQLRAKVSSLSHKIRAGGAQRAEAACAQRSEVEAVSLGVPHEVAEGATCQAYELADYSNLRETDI
Method in brief: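 In pH 7.5 Tris/MgCl2/ascorbic acid buffer, α1A-expressing LM(tk−) membranes are exposed to 0.5 nM [3H]prazosin (37° C, 20 min). Excess phentolamine (10 μM) marks nonspecific binding before rapid filtration.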

[2] = target: T3, α1B Human Adrenergic Receptor (Homo sapiens, UniProt P35368); experiment: Radioligand binding, [3H]prazosin, cloned human α1B adrenergic receptor
T3 construct: The entire coding region of α1B (1563 bp); expressed in transfected cells
T3 sequence (P35368 1-520): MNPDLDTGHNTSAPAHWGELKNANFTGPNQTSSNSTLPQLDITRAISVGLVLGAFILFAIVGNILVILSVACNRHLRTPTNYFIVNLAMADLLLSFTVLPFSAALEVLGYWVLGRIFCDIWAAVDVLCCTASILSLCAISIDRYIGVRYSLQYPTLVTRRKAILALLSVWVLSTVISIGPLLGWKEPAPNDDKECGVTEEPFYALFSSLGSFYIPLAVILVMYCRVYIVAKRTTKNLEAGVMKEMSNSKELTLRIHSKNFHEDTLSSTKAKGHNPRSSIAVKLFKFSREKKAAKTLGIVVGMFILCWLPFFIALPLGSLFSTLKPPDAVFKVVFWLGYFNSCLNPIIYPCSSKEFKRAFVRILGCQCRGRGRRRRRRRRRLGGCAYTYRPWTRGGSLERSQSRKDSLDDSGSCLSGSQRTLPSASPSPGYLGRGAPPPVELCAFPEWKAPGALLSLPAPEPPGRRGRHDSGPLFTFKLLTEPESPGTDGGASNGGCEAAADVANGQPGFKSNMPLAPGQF
Method in brief: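 [3H]prazosin (0.5 nM) binding was run for 20 min at 37° C in pH 7.5 Tris/MgCl2/ascorbate buffer on membranes of LM(tk−) cells stably expressing the cloned receptor. Filtration through GF/B ended the reaction; 10 μM phentolamine gave nonspecific binding.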

[3] = target: T4, α1C Human Adrenergic Receptor (Homo sapiens, UniProt P35348); experiment: Radioligand binding, [3H]prazosin, cloned human α1C adrenergic receptor
T4 construct: The entire coding region of α1C (1401 bp); expressed in transfected cells
T4 sequence (P35348 1-466): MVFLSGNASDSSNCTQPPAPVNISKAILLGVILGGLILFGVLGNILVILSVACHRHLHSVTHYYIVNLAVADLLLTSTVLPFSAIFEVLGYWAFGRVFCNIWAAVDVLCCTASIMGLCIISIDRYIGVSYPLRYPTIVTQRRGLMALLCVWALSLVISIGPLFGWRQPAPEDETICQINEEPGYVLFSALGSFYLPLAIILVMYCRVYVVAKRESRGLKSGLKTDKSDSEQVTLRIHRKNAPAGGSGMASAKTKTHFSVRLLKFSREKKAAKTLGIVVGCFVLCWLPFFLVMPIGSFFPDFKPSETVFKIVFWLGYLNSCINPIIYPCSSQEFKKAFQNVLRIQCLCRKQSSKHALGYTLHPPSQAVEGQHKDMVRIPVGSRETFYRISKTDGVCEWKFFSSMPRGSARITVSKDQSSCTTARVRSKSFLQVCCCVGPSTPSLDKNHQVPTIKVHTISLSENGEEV
Method in brief: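 Antagonist radioligand [3H]prazosin at 0.5 nM labels human α1C receptors in stably transfected LM(tk−) cell membranes over 20 min at 37° C. Phentolamine (10 μM) gives nonspecific binding.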

[4] = [3H]nitrendipine, rat cardiac muscle membranes, SEM and n in lines below, read-out: pKi Ca (converted)
[5] = [3H]prazosin, cloned human receptor in LM(tk-) cell membranes, SEM and n in lines below, read-out: pKi alpha-1 1a (converted)
[6] = cloned human receptor in LM(tk-) cell membranes, SEM and n in lines below, read-out: pKi alpha-1 1b (converted)
[7] = cloned human receptor in LM(tk-) cell membranes, SEM and n in lines below, read-out: pKi alpha-1 1c (converted)
[8] = [3H]nitrendipine, rat cardiac muscle membrane fragments, L-type calcium channel, read-out: pKi Ca (converted)
[9] = pKi alpha-1 1a, [3H]prazosin, cloned human α1A receptor, LM(tk−) cell membranes
[10] = pKi alpha-1 1b, cloned human α1B receptor, LM(tk−) cell membranes
[11] = pKi alpha-1 1c, cloned human α1C receptor, LM(tk−) cell membranes
[12] = [3H]nitrendipine, rat cardiac muscle membranes, mean, read-out: PKi Ca (converted)
[13] = PKi alpha-1 1a, [3H]prazosin, cloned human receptor, LM(tk-) cell membranes, mean
[14] = PKi alpha-1 1b, cloned human receptor, LM(tk-) cell membranes, mean
[15] = PKi alpha-1 1c, cloned human receptor, LM(tk-) cell membranes, mean

SMILES | melting point | Ki (L-type calcium channel; [8]) | Ki [1, 9] | Ki [2, 10] | Ki [3, 11] | also measured
COC(=O)C1=C(C)NC(C)=C(C(=O)NCCCN2CCC(c3ccccc3)CC2)C1c1ccncc1 (stereo not drawn) [Example 32, 1,4-Dihydro-3-methoxycarbonyl-2,6-dimethyl-5-(N-(3-(4-phenylpiperidin-1-yl)propyl)carboxamido)-4-(4-pyridyl)pyridine] | 79 to 80 °C | – | – | – | – | Ki (L-type calcium channel; [4]): 1.58 µM; Ki [1, 5]: 0.741 µM; Ki [2, 6]: 0.302 µM; Ki [3, 7]: 0.0132 µM
COC(=O)C1=C(C)NC(C)=C(C(=O)OCCCN(C)C)C1c1ccc([N+](=O)[O-])cc1.Cl (stereo not drawn) [Example 44, 1,4-Dihydro-5-methoxycarbonyl-2,6-dimethyl-3-{3-[(N,N-dimethyl)amino]propoxy}carbonyl-4-(4-nitrophenyl) pyridine hydrochloride] | 120 to 121 °C | – | – | – | – | Ki (L-type calcium channel; [4]): 16.6 µM; Ki [1, 5]: 5.89 µM; Ki [2, 6]: 8.32 µM; Ki [3, 7]: 1.7 µM
CCNC(=O)C1=C(CC)NC(CC)=C(C(=O)NCCCN2CCC(c3ccccc3)(c3ccccc3)CC2)C1c1ccc([N+](=O)[O-])cc1 (stereo not drawn) [Example 129, 2,6-Diethyl-5-(N-ethyl)carboxamido-1,4-dihydro-4-(4-nitrophenyl)-3-{N-[3-(4,4-diphenylpiperidin-1-yl)propyl]}carboxamidopyridine] | 101 to 104 °C | 100 µM | 0.676 µM | 0.513 µM | 0.00372 µM | –
CCNC(=O)C1=C(C)NC(C)=C(C(=O)NCCCN2CCC(c3ccccc3)(c3ccccc3)CC2)C1c1ccc([N+](=O)[O-])cc1 (stereo not drawn) [Example 131, 5-(N-Ethyl)carboxamido-1,4-dihydro-2,6-dimethyl-4-(4-nitrophenyl)-3-{N-[3-(4,4-diphenylpiperidin-1-yl)propyl]}carboxamidopyridine] | 104 to 108 °C | 100 µM | 1.48 µM | 0.851 µM | 0.00457 µM | –
CCC1=C(C(=O)NCCCN2CCC(c3ccccc3)(c3ccccc3)CC2)C(c2ccc([N+](=O)[O-])cc2)C(C(=O)NC(C)C)=C(CC)N1 (stereo not drawn) [Example 132] | 201 °C (dec.) | 79.4 µM | 0.776 µM | 0.389 µM | 0.0575 µM | –
CCCC1=C(C(=O)NCC)C(c2ccc([N+](=O)[O-])cc2)C(C(=O)NCCCN2CCC(c3ccccc3)(c3ccccc3)CC2)=C(CCC)N1 (stereo not drawn) [Example 159, 5-(N-Ethyl)carboxamido-1,4-dihydro-4-(4-nitrophenyl)-3-{N-[3-(4,4-diphenylpiperidin-1-yl)propyl]}carboxamido-2,6-dipropylpyridine] | 123 to 128 °C | – | – | – | – | Ki (L-type calcium channel; pKi Ca): 1.66 µM; Ki ([1]; pKi alpha-1 1a): 0.389 µM; Ki ([2]; cloned human α1B receptor, LM(tk−) cell membranes, read-out: pKi alpha-1 1b (converted)): 0.178 µM; Ki ([3]; cloned human α1C receptor, LM(tk−) cell membranes, read-out: pKi alpha-1 1c (converted)): 0.00501 µM
CCCC1=C(C(=O)O)C(c2ccc([N+](=O)[O-])cc2)C(C(=O)NCCCN2CCC(c3ccccc3)(c3ccccc3)CC2)=C(CCC)N1 (stereo not drawn) [Example 161, 1,4-Dihydro-4-(4-nitrophenyl)-5-{N-[3-(4,4-diphenylpiperidin-1-yl)propyl]}carboxamido-2,6-dipropylpyridine-3-carboxylic acid] | 126 to 130 °C | 1000 µM | 1.32 µM | 0.407 µM | 0.0389 µM | –
COc1ccc(C2(c3ccccc3)CCN(CCCNC(=O)C3=C(COCCN=[N+]=[N-])NC(C)=C(C(N)=O)C3c3ccc([N+](=O)[O-])cc3)CC2)cc1 (stereo not drawn) [Example 184, 2-[(2-Azidoethoxy)methyl]-5-carboxamido-1,4-dihydro-3-{N-[3-(4-(4-methoxyphenyl)-4-phenylpiperidin-1-yl)propyl]}carboxamido-6-methyl-4-(4-nitrophenyl)pyridine] | 105 to 107 °C | – | – | – | – | Ki (L-type calcium channel; [12]): 12.3 µM; Ki [1, 13]: 0.741 µM; Ki [2, 14]: 0.174 µM; Ki [3, 15]: 0.00955 µM
CNC(=O)C1=C(C)NC(C)=C(C(=O)NCCCN2CCC(C(=O)OC)(c3ccccc3)CC2)C1c1ccc([N+](=O)[O-])cc1 (stereo not drawn) [Example 187, 1,4-Dihydro-2,6-dimethyl-3-{N-[3-(4-methoxycarbonyl-4-phenylpiperidin-1-yl)propyl]}carboxamido-5-(N-methyl) carboxamido-4-(4nitrophenyl)pyridine] | 122 to 123 °C | – | – | – | – | Ki (L-type calcium channel; PKi Ca, [3H]nitrendipine, rat cardiac muscle membranes, mean): 513 µM
CCC1=C(C(=O)O)C(c2ccc([N+](=O)[O-])cc2)C(C(=O)NCCCN2CCC(c3ccccc3)(c3ccccc3)CC2)=C(COCCN)N1 (stereo not drawn) [Example 219, 2-((2-Aminoethyl)oxy)methyl-6-ethyl-1,4-dihydro-4-(4-nitro)phenyl-3-(N-(3-(4,4-diphenylpiperidin-1-yl)propyl))carboxamidopyridine-5-carboxylic Acid] | 180 °C (dec.) | – | – | – | – | Ki (L-type calcium channel; [12]): 575 µM; Ki [1, 13]: 2.69 µM; Ki [2, 14]: 1.23 µM; Ki [3, 15]: 0.0302 µM
CCC1=C(C(=O)NC)C(c2ccc([N+](=O)[O-])cc2)C(C(=O)NCCCN2CCC(c3ccccc3)(c3ccccc3)CC2)=C(COCCN=[N+]=[N-])N1 (stereo not drawn) [Example 224, 2-((2-Azidoethyl)oxy)methyl-6-ethyl-1,4-dihydro-5-N-methylcarboxamido-4-(4-nitro)phenyl-3-(N-(3-(4,4-diphenylpiperidin-1-yl)propyl))carboxamidopyridine] | – | – | – | – | – | Ki (L-type calcium channel; [12]): 15.1 µM; Ki [1, 13]: 0.661 µM; Ki [2, 14]: 0.263 µM; Ki [3, 15]: 0.00692 µM
